{"source": "paper PMC10254045", "about": "“Elaboration of the Effective Multi-Target Therapeutic Platform for the Treatment of Alzheimer’s Disease Based on Novel Monoterpene-Derived Hydroxamic Acids” (International Journal of Molecular Sciences, 2023)", "key": {"[1]": {"tested_on": "5xFAD transgenic mice brain", "test": "Histology of β-amyloid deposits in brain samples (Congo Red)", "format": "in vivo", "settings": "21-day administration; cortex, midbrain and hippocampus zone; vs 5xFAD", "description": "As part of the in vivo testing of the biological activity of the leader compound, a transgenic mouse model with Alzheimer’s disease 5xFAD at the age of 13 months was used. This line expresses two human genes: APP (amyloid peptide precursor protein gene) with three types of mutations (Swedish (K670N, M671L), Florida (I716V) and London (V717I)), as well as the presenilin 1 gene with mutations (M146L and L286V) characteristic of this disease. Clinically healthy wildtype single-litter mice C57Bl6/j (n = 8) were used as a control group. Transgenic 5xFAD mice were randomly divided into two groups: (1) animals receiving intraperitoneal injections of hydroxamic acid 35a at a dose of 15 mg/kg (10% DMSO + NaCl) for three weeks—the 5xFAD + 35a group (n = 8) and (2) mice receiving an equivalent volume of solvent—the group 5xFAD (n = 8). All animals were kept in standard vivarium conditions at a temperature of 22 ± 1 °C and a humidity of 55% indoors with a 12-h light–dark cycle. The animals had no restrictions in the consumption of water and food. […]\nAfter cervical dislocation, the half of brain was dissected and fixed with Carnoy’s solution (ethanol–chloroform–glacial acetic acid, 6:3:1) for 17 h. […] The stained deposits were evaluated using a ZEISS LSM 880 laser scanning microscope (Carl Zeiss, Oberkochen, Germany) in the tile scan mode. […]"}, "[2]": {"test": "DPPH radical scavenging activity", "settings": "Trolox equivalent; compounds and Trolox 100 µM", "description": "(§1) DPPH is a stable chromogen radical, which is widely used to assess the antioxidant activity of biological objects, in particular when searching for potential therapeutic agents used to maintain the redox balance in the body and treat pathologies associated with the action of free radicals. In turn, the oxygen radical absorbance capacity (ORAC) analysis is based on the removal by potential antioxidants of peroxyl radicals generated by AAPH (2,2’-axobis-2-methyl-propanimidamide, dihydrochloride), preventing the degradation of the fluorescein probe.\nThe measurement of the antiradical activity of synthesized hydroxamic acids was carried out using the method described in [150]. The studied compounds were introduced into the wells of a 96-well black tablet (the final concentration was 100 microns), after which a freshly prepared solution of 2,2-diphenyl-1-picrylhydrazyl (Sigma Aldrich, St. Louis, Missouri, USA) was added. After the incubation time had elapsed, the DPPH radical-scavenging activity was measured using a multifunctional Cytation™3 tablet analyzer (BioTek Instruments, Inc., Winooski, VT, USA) at λ = 517 nm by the difference in the reduction of the DPPH radical peak between control samples containing an equivalent volume of solvent and samples with the substances under study."}, "[3]": {"test": "Oxygen radical absorbance capacity (ORAC)", "settings": "Trolox equivalent; compounds and Trolox 100 µM, AAPH 12 mM", "description": "as §1\nThe analysis of the absorption capacity of oxygen radicals was performed as described in [151], with some modifications. Trolox (Sigma Aldrich, St. Louis, MI, USA) was used as a standard antioxidant. The studied compounds were introduced into the holes of a 96-hole black tablet with a transparent bottom with Trolox (25 µL; the final concentration was 100 µM) and fluorescein (150 µL; the final concentration was 80 nM, Sigma Aldrich, St. Louis, MI, USA). The resulting mixture was shaken and incubated for 30 min at 37 °C. After a 30-min incubation period, a solution of 2,2’-azobis (2-amidinopropane) dihydrochloride (AAPH) (25 µL; final concentration of 12 mM, Sigma Aldrich, St. Louis, MI, USA) was quickly introduced into all wells of the tablet. The tablet was immediately placed in a multifunctional tablet analyzer Cytation™ 3 (BioTek Instruments, Inc., Winooski, VT, USA). The fluorescence intensity was recorded for 300 min at λex = 480 nm, λem = 520 nm with an interval of every 5 min. In the same experiment, calibration solutions for the reference antioxidant Trolox were used to confirm the validity of the use of this method (0, 6.25, 12.5, 25, 50 and 100 µM)."}, "Cell viability, MTT test": {"test": "Cell viability, MTT test", "format": "cell-based", "settings": "human, SH-SY5Y neuroblastoma cells, 24-h exposure, read-out: IC50 cytotoxic action", "protocol": "The culture of human neuroblastoma cells (defined as SH-SY5Y) was cultured in DMEM with the addition of embryonic bovine serum (10%), 2 mM glutamine (DiaM, Moscow, Russia) and penicillin-streptomycin (100 U/Ml–100 µg/mL, PanEco, Moscow, Russia) in conditions of 5% CO2 in the air at 37 °C. Upon reaching 80% confluence, cells in the amount of 1 × 10^4 were placed in 96-well transparent plates and incubated under the same conditions for 24 h. After the incubation time, the cells were exposed to a 24-h exposure to various concentrations of hydroxamic acids dissolved in dimethyl sulfoxide (range from 1 to 100 µM). An equivalent volume of solvent was used as a control (final DMSO content = 1%).\nCell survival analysis was performed using MTT test. To do this, 3-(4,5-dimethylthiazol-2-yl)-2,5-diphenyltetrazolium bromide (MTT, 5 mg/mL, DiaM, Moscow, Russia) was introduced into all wells and incubated at 37 °C for 2 h to restore metabolically active cells of the yellow tetrazolium salt MTT to purple formazane crystals. The resulting formazane was then re-suspended in 200 µL DMSO per well. The optical density was recorded using a multifunctional Cytation™3 flatbed analyzer (BioTek Instruments, Inc., Winooski, VT, USA) at λ = 530 nm."}}, "data": [{"compound": "C=C(C)[C@@H]1CC=C(CNC(=O)/C=C/c2ccc(C(=O)NO)cc2)CC1", "note": "[Compound 35a, (S,E)-N-hydroxy-4-(3-oxo-3-(((4-(prop-1-en-2-yl)cyclohex-1-en-1-yl)methyl)amino)prop-1-en-1-yl)benzamide]", "values": [{"measurement": "number of β-amyloid aggregates in the brain", "setting": "[1]", "result": "decreased significantly"}, {"measurement": "DPPH value (TE)", "setting": "[2]", "result": 0.88, "unit": "TE"}, {"measurement": "melting point", "result": 179.9, "unit": "°C"}, {"measurement": "ORAC value (TE)", "setting": "[3]", "result": 1.15, "unit": "TE"}, {"measurement": "IC50 at 24 h", "setting": "Cell viability, MTT test", "result": "89.2 ± 2.09", "unit": "µM"}]}]}
